Reference: ChEMBL document CHEMBL1150408, “Synthesis, induced-fit docking investigations, and in vitro aldose reductase inhibitory activity of non-carboxylic acid containing 2,4-thiazolidinedione derivatives” (Bioorg Med Chem, 2008)

biological target: Aldo-keto reductase family 1 member B1 (Bos taurus, UniProt P16116); test: Inhibition of bovine lens ALR2 assessed as reduction of D,L-glyceraldehyde by spectrophotometry; design: species or system Lens of camera-type eye; details: not given

Row | IC50 [µM] | Compound
1 | 12.7 | O=C(CN1C(=O)S/C(=C\c2cccc(Oc3ccccc3)c2)C1=O)NO
2 | 7.34 | O=C(CN1C(=O)S/C(=C\c2ccc(OCc3ccccc3)cc2)C1=O)NO
3 | 1.79 | O=C(CN1C(=O)S/C(=C\c2ccc(O)cc2)C1=O)NO
4 | 20.3 | O=C(CN1C(=O)S/C(=C\c2ccc(-c3ccccc3)cc2)C1=O)NO
5 | 3.67 | O=C(CN1C(=O)S/C(=C\c2ccc(Oc3ccccc3)cc2)C1=O)NO
6 | 4.2 | O=C(CN1C(=O)S/C(=C\c2cccc3ccccc23)C1=O)NO
7 | 6.52 | NC(=O)CN1C(=O)S/C(=C\c2ccc(O)cc2)C1=O

biological target: Aldo-keto reductase family 1 member B1 (Bos taurus) (UniProt P16116); test: Inhibition of bovine lens ALR2 at 12.5 uM assessed as reduction of D,L-glyceraldehyde by spectrophotometry; assay type: tissue-based; details: Lens of camera-type eye

Row | Compound | inhibition [%]
8 | NC(=O)CN1C(=O)S/C(=C\c2cccc(Oc3ccccc3)c2)C1=O | 8
9 | NC(=O)CN1C(=O)S/C(=C\c2ccc(Oc3ccccc3)cc2)C1=O | 0
10 | NC(=O)CN1C(=O)S/C(=C\c2ccc3ccccc3c2)C1=O | 3
11 | NC(=O)CN1C(=O)S/C(=C\c2ccc(-c3ccccc3)cc2)C1=O | 18
12 | NC(=O)CN1C(=O)S/C(=C\c2cccc3ccccc23)C1=O | 32

Continued, values first:

Row | inhibition [%] | Compound
13 | 0 | COc1ccc(/C=C2\SC(=O)N(CC(N)=O)C2=O)cc1
14 | 31 | COc1cc(/C=C2\SC(=O)N(CC(N)=O)C2=O)ccc1O
15 | 16 | NC(=O)CN1C(=O)S/C(=C\c2cccc(O)c2)C1=O
16 | 0 | COc1ccc(/C=C2\SC(=O)N(CC(N)=O)C2=O)cc1O
17 | 10 | COc1cccc(/C=C2\SC(=O)N(CC(N)=O)C2=O)c1

biological target: Aldo-keto reductase family 1 member B1 (Bos taurus) (UniProt P16116); test: Inhibition of bovine lens ALR2 at 25 uM assessed as reduction of D,L-glyceraldehyde by spectrophotometry; details: Lens of camera-type eye

Row | inhibition [%] | Compound
18 | 39 | O=C(CN1C(=O)S/C(=C\c2ccc3ccccc3c2)C1=O)NO

test system: not listed separately; test: Dissociation constant, pKa of the compound; assay type: physicochemical; details: not given

Row | pKa | Compound
19 | 8 | O=C1NC(=O)[C@@]2(CCOc3ccc(F)cc32)N1 [SORBINIL]

biological target: Aldose reductase (Bos taurus); test: Inhibition of ALR2; details: not given

Row | IC50 [µM] | Compound
20 | 0.15 | O=C(O)CN1C(=O)S/C(=C\c2ccc(O)cc2)C1=O
